Patent US20250140406A1, “CLASSIFYING TUMORS AND PREDICTING RESPONSIVENESS” (Oncocyte Corporation, priority 2022, published 2025)
Where two headings read alike, the source gives them in different places. Square brackets hold non-standard residues; d marks the D form. Peptide text beside a SMILES is read from it. * marks the point of attachment. dPhe(4-NHCONH2) = NC(=O)Nc1ccc(C[C@@H](N)C(=O)O)cc1; Dihydroorotyl(S) = O=C1C[C@@H](C(=O)*)NC(=O)N1; dPhe(4-Cl) = N[C@H](Cc1ccc(Cl)cc1)C(=O)O; Phe(4-NH2) = Nc1ccc(C[C@H](N)C(=O)O)cc1; d2Nal = N[C@H](Cc1ccc2ccccc2c1)C(=O)O; Lys(iPr) = CC(C)NCCCC[C@H](N)C(=O)O; d3Pal = N[C@H](Cc1cccnc1)C(=O)O

How the values were obtained:
[1] = test system: cancer cell lines classified IM, MSL, M; assay: PRISM screen compound sensitivity correlated with IM, MSL and M subtype of cell lines (101 gene signature); type: cell-based
[2] = test system: cancer cell lines, DetermaIO classes; assay: Association of PRISM compound sensitivity with DetermaIO (DTIO) cell line classes; type: cell-based
[3] = correlation of PRISM compound sensitivity with IM subtype correlation, test cell set
[4] = correlation of PRISM compound sensitivity with M subtype correlation, test cell set
[5] = correlation of PRISM compound sensitivity with MSL subtype correlation, test cell set
[6] = correlation of PRISM compound sensitivity with DTIO, test cell set
[7] = correlation of PRISM compound sensitivity with DTIO, training cell set
[8] = correlation of PRISM compound sensitivity with IM subtype correlation, test cell set (188 cell lines)
[9] = correlation of PRISM compound sensitivity with M subtype correlation, test cell set (188 cell lines)
[10] = correlation of PRISM compound sensitivity with MSL subtype correlation, test cell set (188 cell lines)
[11] = subtype (IM, MSL or M) assigned to the compound by negative correlation of PRISM sensitivity with subtype, training cell set (371 cell lines), 101 gene signature
[12] = correlation of PRISM compound sensitivity with DTIO (DetermaIO), test cell set (188 cell lines)
[13] = correlation of PRISM compound sensitivity with DTIO (DetermaIO), training cell set (371 cell lines)
[14] = subtype (IM, MSL or M) with which compound sensitivity is negatively correlated, training cell set (371 cell lines), 101 gene signature
[15] = subtype (IM, MSL or M) with which PRISM compound sensitivity is negatively correlated, training cell set, 101 gene signature
[16] = subtype (IM, MSL or M) the PRISM compound sensitivity is associated with, training cell set (371 cell lines), 101 gene signature
[17] = correlation of PRISM compound sensitivity with DTIO, test cell set (188 cell lines)
[18] = correlation of PRISM compound sensitivity with DTIO, training cell set (371 cell lines)

## Cc1c(Cl)cccc1Nc1ncccc1C(=O)O.NCCCC[C@H](N)C(=O)O [clonixin-lysinate]
[1]
  IM Corr test: −0.06378
  M Corr test: 0.004709
  MSL Corr test: −0.03679
  TNBCType train: MSL
[2]
  DTIO Corr test: −0.01494
  DTIO Corr train: −0.00484

## CN(CCOP(=O)(O)O)C(=N)N [creatinol-phosphate]
[1]; [3]
  IM Corr test: −0.00785
[1]; [4]
  M Corr test: 0.001052
[1]; [5]
  MSL Corr test: −0.06276
[2]; [6]
  DTIO Corr test: 0.02757
[2]; [7]
  DTIO Corr train: −0.08518

## CN[C@@H](C)[C@H]1[C@H](O)C[C@@]2(C)[C@@H]3CC[C@H]4C(C)(C)[C@@H](NC)CC[C@@]45C[C@@]35CC[C@]12C [cyclovirobuxin-d]
[1]; [3]
  IM Corr test: 0.03318
[1]; [4]
  M Corr test: −0.04158
[1]; [5]
  MSL Corr test: 0.04619
[2]; [6]
  DTIO Corr test: 0.02667
[2]; [7]
  DTIO Corr train: 0.06721

## N#CCNC(=O)c1ccc(-c2ccnc(Nc3ccc(N4CCOCC4)cc3)n2)cc1 [cyt387]
[1]; [8]
  IM Corr test: 0.06763
[1]; [9]
  M Corr test: −0.1142
[1]; [10]
  MSL Corr test: −0.1416
[1]; [11]
  TNBCType train: MSL
[2]; [12]
  DTIO Corr test: 0.000569
[2]; [13]
  DTIO Corr train: −0.03421

## CC(=O)N[C@H](Cc1ccc2ccccc2c1)C(=O)N[C@H](Cc1ccc(Cl)cc1)C(=O)N[C@H](Cc1cccnc1)C(=O)N[C@@H](CO)C(=O)N[C@@H](Cc1ccc(NC(=O)[C@@H]2CC(=O)NC(=O)N2)cc1)C(=O)N[C@H](Cc1ccc(NC(N)=O)cc1)C(=O)N[C@@H](CC(C)C)C(=O)N[C@@H](CCCCNC(C)C)C(=O)N1CCC[C@H]1C(=O)N[C@H](C)C(N)=O [degarelix] (Ac-[d2Nal][dPhe(4-Cl)][d3Pal]S[Phe(4-NH2)](Dihydroorotyl(S))[dPhe(4-NHCONH2)]L[Lys(iPr)]P[dA]-NH2)
[1]; [8]
  IM Corr test: 0.000275
[1]; [9]
  M Corr test: −0.03554
[1]; [10]
  MSL Corr test: −0.05421
[1]; [14]
  TNBCType train: MSL
[2]; [6]
  DTIO Corr test: −0.01776
[2]; [7]
  DTIO Corr train: 0.01996

## CCN(CC)C(=S)[S-].O.O.O.[Na+] [ditiocarb-sodium-trihydrate]
[1]; [3]
  IM Corr test: −0.07988
[1]; [4]
  M Corr test: 0.03103
[1]; [5]
  MSL Corr test: −0.01951
[1]; [15]
  TNBCType train: MSL
[2]; [6]
  DTIO Corr test: −0.1096
[2]; [7]
  DTIO Corr train: −0.01519

## C[C@]12N[C@H](Cc3ccccc31)c1ccccc12 [dizocilpine-(−)]
[1]; [3]
  IM Corr test: −0.0703
[1]; [4]
  M Corr test: −0.00928
[1]; [5]
  MSL Corr test: −0.09183
[1]; [15]
  TNBCType train: MSL
[2]; [6]
  DTIO Corr test: −0.06945
[2]; [7]
  DTIO Corr train: 0.02729

## CC[C@H](C)[C@@H]([C@@H](CC(=O)N1CCC[C@H]1[C@H](OC)[C@@H](C)C(=O)N[C@@H](Cc1ccccc1)c1nccs1)OC)N(C)C(=O)[C@@H](NC(=O)[C@H](C(C)C)N(C)C)C(C)C [dolastatin-10]
[1]; [8]
  IM Corr test: −0.05477
[1]; [9]
  M Corr test: 0.003299
[1]; [10]
  MSL Corr test: −0.00011
[1]; [11]
  TNBCType train: MSL
[2]; [12]
  DTIO Corr test: −0.08086
[2]; [13]
  DTIO Corr train: −0.07579

## C[C@H](N[C@@H](CCc1ccccc1)C(=O)O)C(=O)N1CCC[C@H]1C(=O)O [enalaprilat]
[1]; [8]
  IM Corr test: 0.03404
[1]; [9]
  M Corr test: −0.06381
[1]; [10]
  MSL Corr test: −0.1038
[1]; [16]
  TNBCType train: MSL
[2]; [17]
  DTIO Corr test: −0.03184
[2]; [18]
  DTIO Corr train: 0.0604

## C=C1C[C@@H]2[C@H](CC[C@]3(C)C(=O)CC[C@@H]23)[C@@]2(C)C=CC(=O)C=C12 [exemestane]
[1]
  IM Corr test: 0.07921
  M Corr test: −0.1056
  MSL Corr test: −0.04525
[2]
  DTIO Corr test: 0.03291
  DTIO Corr train: 0.03081

## CCC(O)(c1ccccc1)c1cccc(C(F)(F)F)c1 (stereo not drawn) [flumecinol]
[1]; [8]
  IM Corr test: 0.06404
[1]; [9]
  M Corr test: −0.06491
[1]; [10]
  MSL Corr test: −0.09398
[1]; [14]
  TNBCType train: MSL
[2]; [6]
  DTIO Corr test: 0.03786
[2]; [7]
  DTIO Corr train: 0.02706

## OCCN1CCN(CC/C=C2/c3ccccc3Sc3ccc(C(F)(F)F)cc32)CC1 [flupentixol]
[1]; [8]
  IM Corr test: −0.05449
[1]; [9]
  M Corr test: 0.1086
[1]; [10]
  MSL Corr test: 0.1536
[2]; [12]
  DTIO Corr test: −0.04775
[2]; [13]
  DTIO Corr train: −0.1041

## C[C@H](C(=O)O)c1ccc(-c2ccccc2)c(F)c1 [flurbiprofen-(S)-(+)]
[1]; [8]
  IM Corr test: −0.0194
[1]; [9]
  M Corr test: 0.01889
[1]; [10]
  MSL Corr test: 0.02942
[2]; [12]
  DTIO Corr test: −0.0319
[2]; [13]
  DTIO Corr train: −0.04195

## CNC(=O)CN(CCN(CCN(CC(=O)[O-])CC(=O)NC)CC(=O)[O-])CC(=O)[O-].[Gd+3] [gadodiamide]
[1]; [3]
  IM Corr test: −0.07426
[1]; [4]
  M Corr test: 0.04886
[1]; [5]
  MSL Corr test: −0.03759
[2]; [6]
  DTIO Corr test: −0.0433
[2]; [7]
  DTIO Corr train: −0.1128

## CC(O)CN1CCN(CC(=O)[O-])CCN(CC(=O)[O-])CCN(CC(=O)[O-])CC1.[Gd+3] (stereo not drawn) [gadoteridol]
[1]; [8]
  IM Corr test: −0.02624
[1]; [9]
  M Corr test: −0.02135
[1]; [10]
  MSL Corr test: −0.00929
[1]; [14]
  TNBCType train: MSL
[2]; [6]
  DTIO Corr test: −0.08228
[2]; [7]
  DTIO Corr train: −0.04116

## CC(C)=CCC[C@](C)(O[C@@H]1O[C@H](CO)[C@@H](O)[C@H](O)[C@H]1O)[C@H]1CC[C@]2(C)[C@@H]1[C@H](O)C[C@@H]1[C@@]3(C)CC[C@H](O[C@@H]4O[C@H](CO)[C@@H](O)[C@H](O)[C@H]4O[C@@H]4O[C@H](CO)[C@@H](O)[C@H](O)[C@H]4O)C(C)(C)[C@@H]3CC[C@]12C [ginsenoside-rd]
[1]
  IM Corr test: −0.05744
  M Corr test: −0.00784
  MSL Corr test: −0.02352
[1]; [14]
  TNBCType train: MSL
[2]
  DTIO Corr test: −0.0392
  DTIO Corr train: −0.02011

## CC(C)=CCC[C@](C)(O)[C@H]1CC[C@]2(C)[C@@H]1[C@H](O)C[C@@H]1[C@@]3(C)CC[C@H](O[C@@H]4O[C@H](CO)[C@@H](O)[C@H](O)[C@H]4O[C@@H]4O[C@H](CO)[C@@H](O)[C@H](O)[C@H]4O)C(C)(C)[C@@H]3CC[C@]12C [ginsenoside-rg3]
[1]; [8]
  IM Corr test: 0.007852
[1]; [9]
  M Corr test: −0.05841
[1]; [10]
  MSL Corr test: −0.02955
[2]; [6]
  DTIO Corr test: −0.00056
[2]; [7]
  DTIO Corr train: 0.0566

## CC(C)C[C@H](NC(=O)CNC(=O)[C@H](Cc1ccc(O)cc1)NC(=O)[C@H](CO)NC(=O)[C@H](Cc1c[nH]c2ccccc12)NC(=O)[C@H](Cc1cnc[nH]1)NC(=O)[C@@H]1CCC(=O)N1)C(=O)N[C@@H](CCCNC(=N)N)C(=O)N1CCC[C@H]1C(=O)NCC(N)=O [gonadorelin]
[1]; [8]
  IM Corr test: −0.1061
[1]; [9]
  M Corr test: −0.01145
[1]; [10]
  MSL Corr test: −0.1224
[1]; [16]
  TNBCType train: MSL
[2]; [17]
  DTIO Corr test: −0.06774
[2]; [18]
  DTIO Corr train: −0.05189

## O=C(O)Cc1cccnc1C(=O)O [homoquinolinic-acid]
[1]; [3]
  IM Corr test: −0.08778
[1]; [4]
  M Corr test: 0.05663
[1]; [5]
  MSL Corr test: 0.003236
[2]; [6]
  DTIO Corr test: −0.0252
[2]; [7]
  DTIO Corr train: −0.1121

## O=C(O)CCCN1C(=O)c2cccc3cccc(c23)C1=O [isodibut]
[1]; [8]
  IM Corr test: −0.04572
[1]; [9]
  M Corr test: −0.03436
[1]; [10]
  MSL Corr test: −0.1039
[1]; [11]
  TNBCType train: MSL
[2]; [12]
  DTIO Corr test: −0.0652
[2]; [13]
  DTIO Corr train: 0.05075

## CNC(C)CCC=C(C)C.CNC(C)CCC=C(C)C.O=C(O)[C@@H](O)[C@H](O)[C@H](O)[C@@H](O)C(=O)O [isometheptene-mucate]
[1]; [8]
  IM Corr test: −0.09289
[1]; [9]
  M Corr test: 0.05313
[1]; [10]
  MSL Corr test: 0.118
[2]; [6]
  DTIO Corr test: −0.04443
[2]; [7]
  DTIO Corr train: −0.1179
